Where two headings read alike, the source gives them in different places. Positions of bridges follow the written chain, without caps; N, C: chain ends. Residues, ends and D or L forms follow the SMILES beside them.
Experiments:
[1] = target: S. epidermidis agr-II (Staphylococcus epidermidis, UniProt Q8VSX5); experiment: cell-based; format: cell-based; conditions: fluorescent reporter strain; peptides tested at 1000, 50, 2.5, 0.125 nM or in dose-response
Procedure: (§1) Peptides were evaluated for the ability to interfere with agr-mediated quorum sensing in S. aureus (AH1677, AH430, AH1747, and AH1872 for agr-I–IV, respectively) ([40]) using reporter strains expressing yellow fluorescent protein (YFP) upon agr activation. Interference with agr-mediated quorum sensing in S. epidermidis (AH3408, AH3623, and AH3409 for agr-I–III, respectively) ([45]), and S. lugdunensis (AH4031 for agr-I) ([37]) was evaluated using reporter strains expressing superfolder green fluorescent protein (sGFP) upon agr activation. Overnight cultures of the reporter strains were grown in TSB medium containing chloramphenicol (CAM, 10 μg/mL for S. aureus) or erythromycin (ERM, 10 μg/mL of S. epidermidis and S. lugdunensis) and diluted 1:100 in fresh TSB medium containing the same antibiotic. Assays were performed in sterile black 96-well plates with a clear bottom. […] DMSO stock solutions of peptides (1 mM) were diluted in TSB media and added (15 μL) in technical triplicate to the 96-well plate, followed by diluted bacterial overnight cultures (135 μL). Control wells for 100% agr activity were wells replacing the peptide solution with TSB medium (15 μL). […] Wells containing 150 μL TSB medium were used to measure background fluorescence. The 96-well plates were incubated in a humidified incubator at 37°C shaking at 1,000 rpm for 22–24 h and fluorescence (for GFP: excitation 479 nm, emission 520 nm; for YFP: excitation 500 nm, emission 541 nm; automatic gain), and OD600 values were subsequently measured using a plate reader. Background fluorescence was subtracted from all wells and further normalized to the corresponding OD600 value of the respective wells. The average fluorescence of control wells was used as a relative measure for 100% activation of the agr-circuit, and bar graphs were generated using GraphPad Prism 10.4 software. All assays were performed in at least a biological duplicate.
(§2) Overnight cultures of the reporter strains were grown in TSB medium containing chloramphenicol (CAM, 10 μg/mL for S. aureus) or erythromycin (ERM, 10 μg/mL of S. epidermidis and S. lugdunensis) and diluted 1:100 in fresh TSB medium containing the same antibiotic. Assays were performed in sterile black 96-well plates with clear bottoms. Peptide solutions (15 μL) in 1:5 serial dilutions from DMSO stock solutions (1 mM) in TSB medium were added to the 96-well plate in technical duplicate followed by diluted bacterial overnight cultures (135 μL). Control wells for 100% agr activity were wells replacing the peptide solution with TSB medium (15 μL). Wells containing 150 μL TSB medium were used to measure background fluorescence. The 96-well plates were incubated in a humidified incubator at 37°C shaking at 1,000 rpm for 22–24 h and fluorescence (for GFP: excitation 479 nm, emission 520 nm; for YFP: excitation 500 nm, emission 541 nm; automatic gain), and OD600 values were subsequently measured using a plate reader. Background fluorescence was subtracted from all wells and further normalized to the corresponding OD600 value of the respective wells. The average fluorescence of control wells was used as a relative measure for 100% activation of the agr-circuit. Relative agr activity was plotted to obtain IC50 values by non-linear regression with variable slope using GraphPad Prism 10.4 software. All assays were performed in biological triplicate.

[2] = target: SA AgrC-I (Staphylococcus aureus, UniProt O07911); experiment: β-Lactamase assay, reporter strain RN10829 (P2-agrA:P3-blaZ) with pagrC-I; format: cell-based
Text: The β-lactamase reporter strain RN10829 (P2-agrA:P3-blaZ) ([62]), with pagrC-I ([63]), pagrC-II, pagrC-III, or pagrC-IV ([11]), substituting the native agr locus with a chromosomal integration of P2-agrA and P3-blaZ and a plasmid from which a wild-type variant of the corresponding AgrC is expressed, was used to assess inhibition and activation of the AgrC receptor via β-lactamase activity in response to varying concentrations of the QS modulating peptides. Overnight cultures of the reporter strains in TSB medium were diluted 1:250 in fresh TSB medium and grown to OD600 = 0.35–0.40 (early exponential phase) at 37°C. Peptide solutions (10 μL) in 1:10 serial dilutions from DMSO stock solutions (1 mM) in TSB medium (final concentrations = 10 μM–10 pM) were added to each well of a clear 96-well plate as well as solutions (10 μL) of cognate AIP (final concentration = 100 nM) in TSB medium followed by 80 μL of bacterial cells. […] The 96-well plates were incubated at 37°C shaking at 200 rpm for 1 h and immediately frozen down at −80°C to minimize growth during nitrocefin treatment. Next, the 96-well plates were thawed, and OD600 values were determined using a plate reader followed by the addition of 50 μL of nitrocefin solution to the wells (final concentration = 33.3 μg/mL). β-Lactamase activity was monitored at OD486 every 20 s for 10 min at 37°C using a plate-reader. Linear nitrocefin conversion rates were plotted to obtain IC50 values by non-linear regression with variable slope using GraphPad Prism 10.4 software. Assays were performed at least as duplicate determinations in biological triplicate.

[3] = target: SA AgrC-II (Staphylococcus aureus, UniProt O33587); experiment: β-Lactamase assay, reporter strain RN10829 (P2-agrA:P3-blaZ) with pagrC-II; format: cell-based; conditions: for IC50, SA AgrC-II, b-lactamase assay: 100 nM cognate AIP, ± SEM, -b = no inhibition recorded at the highest AIP concentration tested, -a = only partial inhibition observed, this study (curves in Fig. S20)
Text: (§3) The β-lactamase reporter strain RN10829 (P2-agrA:P3-blaZ) ([62]), with pagrC-I ([63]), pagrC-II, pagrC-III, or pagrC-IV ([11]), substituting the native agr locus with a chromosomal integration of P2-agrA and P3-blaZ and a plasmid from which a wild-type variant of the corresponding AgrC is expressed, was used to assess inhibition and activation of the AgrC receptor via β-lactamase activity in response to varying concentrations of the QS modulating peptides. Overnight cultures of the reporter strains in TSB medium were diluted 1:250 in fresh TSB medium and grown to OD600 = 0.35–0.40 (early exponential phase) at 37°C. Peptide solutions (10 μL) in 1:10 serial dilutions from DMSO stock solutions (1 mM) in TSB medium (final concentrations = 10 μM–10 pM) were added to each well of a clear 96-well plate as well as solutions (10 μL) of cognate AIP (final concentration = 100 nM) in TSB medium followed by 80 μL of bacterial cells. Control wells for 100% β-lactamase activity were wells replacing peptide solution with TSB media (10 μL), and control wells for 0% β-lactamase activity were wells replacing both peptide and cognate AIP solutions with TSB medium (20 μL). The 96-well plates were incubated at 37°C shaking at 200 rpm for 1 h and immediately frozen down at −80°C to minimize growth during nitrocefin treatment. Next, the 96-well plates were thawed, and OD600 values were determined using a plate reader followed by the addition of 50 μL of nitrocefin solution to the wells (final concentration = 33.3 μg/mL). β-Lactamase activity was monitored at OD486 every 20 s for 10 min at 37°C using a plate-reader. Linear nitrocefin conversion rates were plotted to obtain IC50 values by non-linear regression with variable slope using GraphPad Prism 10.4 software. Assays were performed at least as duplicate determinations in biological triplicate.

[4] = target: SA AgrC-III (Staphylococcus aureus, UniProt O33590); experiment: β-Lactamase assay, reporter strain RN10829 (P2-agrA:P3-blaZ) with pagrC-III; format: cell-based; conditions: for IC50, SA AgrC-III, b-lactamase assay: 100 nM cognate AIP, ± SEM, -b = no inhibition recorded at the highest AIP concentration tested, -a = only partial inhibition observed, this study (curves in Fig. S21)
Text: as §3

[5] = target: SA AgrC-IV (Staphylococcus aureus, UniProt Q309Z2); experiment: β-Lactamase assay, reporter strain RN10829 (P2-agrA:P3-blaZ) with pagrC-IV; format: cell-based; conditions: for IC50, SA AgrC-IV, b-lactamase assay: 100 nM cognate AIP, ± SEM, -b = no inhibition recorded at the highest AIP concentration tested, -a = only partial inhibition observed, this study (curves in Fig. S22)
Text: as §3

[6] = system: S. epidermidis (SE) agr-I; conditions: fluorescence, cited from earlier work
[7] = system: S. epidermidis (SE) agr-II; conditions: fluorescence; from supernatant; ref (18); cited from earlier work
[8] = system: S. epidermidis (SE) agr-III; conditions: fluorescence; from supernatant; ref (18); cited from earlier work
[9] = target: S. aureus agr-II (Staphylococcus aureus, UniProt O33587); experiment: cell-based
Procedure: as §1, §2

[10] = target: S. aureus agr-IV (Staphylococcus aureus, UniProt Q309Z2); experiment: cell-based; format: cell-based; conditions: fluorescent reporter strain; peptides tested at 1000, 50, 2.5, 0.125 nM or in dose-response
Procedure: as §1, §2

[11] = target: S. epidermidis agr-III (Staphylococcus epidermidis, UniProt Q8VSX2); experiment: cell-based; format: cell-based
Procedure: as §1, §2

[12] = system: S. aureus (SA) agr-II; conditions: fluorescence, cited from earlier work
[13] = system: S. aureus (SA) agr-III; conditions: fluorescence, cited from earlier work
[14] = system: S. aureus (SA) agr-IV; conditions: fluorescence, cited from earlier work
[15] = system: S. aureus (SA) agr-I; conditions: fluorescence; ref (15); cited from earlier work

Chain of SA AgrC-IV (Q309Z2 entry or part of it): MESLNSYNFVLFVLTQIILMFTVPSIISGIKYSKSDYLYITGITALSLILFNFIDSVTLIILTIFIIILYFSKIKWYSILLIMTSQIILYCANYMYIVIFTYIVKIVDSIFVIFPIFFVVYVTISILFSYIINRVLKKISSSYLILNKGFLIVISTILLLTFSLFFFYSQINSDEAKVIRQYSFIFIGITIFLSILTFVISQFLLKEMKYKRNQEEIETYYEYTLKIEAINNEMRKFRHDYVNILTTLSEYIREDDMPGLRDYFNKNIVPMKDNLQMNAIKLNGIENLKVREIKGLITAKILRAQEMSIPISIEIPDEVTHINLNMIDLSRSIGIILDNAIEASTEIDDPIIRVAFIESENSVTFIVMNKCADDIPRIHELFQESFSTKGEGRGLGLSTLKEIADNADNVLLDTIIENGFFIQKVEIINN
Chain of SA AgrC-III (O33590 entry or part of it): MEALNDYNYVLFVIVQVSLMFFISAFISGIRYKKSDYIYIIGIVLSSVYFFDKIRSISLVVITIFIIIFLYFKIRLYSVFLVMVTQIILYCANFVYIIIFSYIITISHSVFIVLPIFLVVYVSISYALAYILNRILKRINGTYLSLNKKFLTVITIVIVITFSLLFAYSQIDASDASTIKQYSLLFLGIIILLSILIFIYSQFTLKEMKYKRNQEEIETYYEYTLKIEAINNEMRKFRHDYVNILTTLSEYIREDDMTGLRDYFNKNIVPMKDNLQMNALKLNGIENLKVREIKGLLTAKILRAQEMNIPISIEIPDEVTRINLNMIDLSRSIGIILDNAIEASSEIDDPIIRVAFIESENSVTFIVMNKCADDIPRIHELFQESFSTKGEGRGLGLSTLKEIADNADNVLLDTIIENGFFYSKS
Chain of SA AgrC-I (O07911 entry or part of it): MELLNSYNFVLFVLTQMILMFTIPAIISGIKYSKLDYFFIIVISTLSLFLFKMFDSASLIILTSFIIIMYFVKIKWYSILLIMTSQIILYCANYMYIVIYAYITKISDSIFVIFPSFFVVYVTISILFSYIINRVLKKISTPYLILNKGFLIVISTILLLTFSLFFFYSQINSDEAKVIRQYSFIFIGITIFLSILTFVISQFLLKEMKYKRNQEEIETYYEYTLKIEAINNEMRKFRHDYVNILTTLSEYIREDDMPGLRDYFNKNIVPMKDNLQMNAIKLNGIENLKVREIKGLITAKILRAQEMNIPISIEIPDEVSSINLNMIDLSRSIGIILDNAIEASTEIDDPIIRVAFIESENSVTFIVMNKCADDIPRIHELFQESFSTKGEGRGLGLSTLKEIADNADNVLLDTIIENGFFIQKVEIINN
Chain of SA AgrC-II (O33587 entry or part of it): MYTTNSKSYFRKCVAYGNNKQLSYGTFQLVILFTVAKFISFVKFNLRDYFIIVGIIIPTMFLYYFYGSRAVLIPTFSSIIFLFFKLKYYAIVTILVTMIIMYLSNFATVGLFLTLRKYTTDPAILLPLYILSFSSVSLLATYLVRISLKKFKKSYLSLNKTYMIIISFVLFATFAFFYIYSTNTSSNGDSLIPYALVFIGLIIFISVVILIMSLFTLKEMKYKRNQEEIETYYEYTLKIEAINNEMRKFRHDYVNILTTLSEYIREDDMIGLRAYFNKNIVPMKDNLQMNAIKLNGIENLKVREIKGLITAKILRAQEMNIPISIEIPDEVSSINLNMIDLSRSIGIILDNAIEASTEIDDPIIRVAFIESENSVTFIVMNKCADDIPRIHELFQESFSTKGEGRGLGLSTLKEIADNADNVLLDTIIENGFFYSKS
Chain of S. aureus agr-IV (Q309Z2 entry or part of it): as the sequence (Q309Z2 entry or part of it) above
Chain of S. epidermidis agr-III (Q8VSX2 entry or part of it): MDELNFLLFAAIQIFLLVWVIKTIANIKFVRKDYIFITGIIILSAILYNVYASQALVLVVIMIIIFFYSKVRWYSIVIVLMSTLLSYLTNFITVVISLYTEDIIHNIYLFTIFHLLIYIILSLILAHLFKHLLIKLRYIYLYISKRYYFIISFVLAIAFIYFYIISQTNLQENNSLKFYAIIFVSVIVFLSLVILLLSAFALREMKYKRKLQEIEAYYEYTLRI
Chain of S. epidermidis agr-II (Q8VSX5 entry or part of it): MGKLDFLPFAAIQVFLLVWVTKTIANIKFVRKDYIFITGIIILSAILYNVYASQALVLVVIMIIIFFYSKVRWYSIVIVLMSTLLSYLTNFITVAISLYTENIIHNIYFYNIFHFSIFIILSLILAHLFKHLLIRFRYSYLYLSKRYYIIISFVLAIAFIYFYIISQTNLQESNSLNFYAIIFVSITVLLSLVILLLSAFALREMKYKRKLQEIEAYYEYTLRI
Chain of S. aureus agr-II (O33587 entry or part of it): as the sequence (O33587 entry or part of it) above

In the case of CC(C)C[C@@H]1NC(=O)[C@H](Cc2ccc(O)cc2)NC(=O)[C@H](CO)NC(=O)[C@H](C)NC(=O)[C@@H](NC(=O)[C@@H]2CCCN2C(=O)[C@H](CC(N)=O)NC(=O)[C@H](Cc2ccc(O)cc2)NC(=O)[C@H](CCCCN)NC(=O)[C@H](C)NC(=O)[C@H](C)NC(=O)[C@@H](N)CC(N)=O)CSC1=O [compound 7, S. epidermidis AIP-III] (H-NAAKYNPCASYL; thioester 8-C), the “QS interaction in words (inhibition / activation), S. epidermidis agr-II” value [1] is reported as “activator”, the IC50 [2] is reported as > 10000 nM and the “IC50, SA AgrC-II, b-lactamase assay” value [3] is reported as “-b”. For the same molecule, the IC50 [4] was > 10000 nM, the “IC50, SA AgrC-IV, b-lactamase assay” value [5] was “-b” and the “effect from supernatant (% inhibition, activation or no effect), SE agr-I” value ([6]; from supernatant, ref (18)) was ~ 50%. The IC50 ([6]; ref (11)) was 34.3 nM, the “effect from supernatant (% inhibition, activation or no effect), SE agr-II” value [7] was “no effect” and the “effect from supernatant (% inhibition, activation or no effect), SE agr-III” value [8] was “activation”.
With CC[C@H](C)[C@H](NC(=O)[C@@H](N)CC(=O)O)C(=O)N[C@H]1CSC(=O)[C@H](Cc2ccccc2)NC(=O)[C@H](Cc2ccc(O)cc2)NC(=O)[C@H](C)NC(=O)[C@H](CC(N)=O)NC1=O [compound 8, S. lugdunensis AIP-I] (H-DICNAYF; thioester 3-C; N-terminus assumed) the IC50 [9] was 234 nM, the “QS interaction in words (inhibition / activation), S. aureus agr-IV” value [10] was “no effect at 1000 nM” and the IC50 [11] was 66.8 ± 2.9 nM. The “IC50, SA AgrC-II, b-lactamase assay” value [3] was “-b”, the IC50 [4] was > 1000 nM and the “IC50, SA AgrC-IV, b-lactamase assay” value [5] was “-b”. The IC50 ([12]; ref (10)) was 419 nM, the IC50 ([13]; ref (10)) was 36.6 nM and the IC50 ([14]; ref (10)) was > 1000 nM.
For CC[C@H](C)[C@H](NC(=O)[C@@H](N)[C@@H](C)O)C(=O)N[C@@H](CO)C(=O)N[C@@H](CO)C(=O)N[C@H](C(=O)N[C@@H](CCCCN)C(=O)N1CCC[C@H]1C(=O)N[C@H]1CSC(=O)[C@H](C(C)C)NC(=O)[C@H](Cc2ccccc2)NC(=O)CNC(=O)[C@H]([C@@H](C)O)NC1=O)C(C)C [compound 18, S. cohnii AIP-I] (H-TISSVKPCTGFV; thioester 8-C), the IC50 [2] was > 10000 nM, the “IC50, SA AgrC-II, b-lactamase assay” value [3] was “-b” and the “IC50, SA AgrC-III, b-lactamase assay” value [4] was “-b”. The “IC50, SA AgrC-IV, b-lactamase assay” value [5] was “-b”.
For C[C@@H](O)[C@H](NC(=O)[C@H](CO)NC(=O)[C@@H](N)Cc1ccc(O)cc1)C(=O)N[C@H]1CSC(=O)[C@H](Cc2ccccc2)NC(=O)[C@H](Cc2ccc(O)cc2)NC(=O)[C@H](Cc2ccc(O)cc2)NC(=O)[C@H](CO)NC1=O [compound 20, S. caprae AIP-I] (H-YSTCSYYF; thioester 4-C), the IC50 [2] was 5.7 ± 0.8 nM, the IC50 [3] was 252 ± 44 nM and the “IC50, SA AgrC-III, b-lactamase assay” value [4] was “-a”. For the same molecule, the IC50 [5] was 199 ± 19 nM, the IC50 [15] was 0.6 ± 0.02 nM and the IC50 ([12]; ref (15)) was 0.26 ± 0.08 nM. The IC50 ([13]; ref (15)) was 0.2 nM and the IC50 ([14]; ref (15)) was 8.98 ± 0.32 nM.
For C[C@H](N)C(=O)N[C@@H](CC(N)=O)C(=O)N1CCC[C@H]1C(=O)N[C@H]1CSC(=O)[C@H](Cc2ccccc2)NC(=O)[C@H](Cc2ccc(O)cc2)NC(=O)CNC(=O)[C@H](C)NC1=O [compound 21, S. pasteuri AIP-I] (H-ANPCAGYF; thioester 4-C), the IC50 [2] was 155 ± 34 nM, the “IC50, SA AgrC-II, b-lactamase assay” value [3] was “-b” and the IC50 [4] was 191 ± 18 nM. For the same molecule, the IC50 [5] was > 1000 nM.
In the case of CC(C)C[C@H](NC(=O)[C@H](C)NC(=O)CNC(=O)[C@H](C)NC(=O)[C@@H](NC(=O)[C@H](C)N)[C@@H](C)O)C(=O)N1CCC[C@H]1C(=O)N[C@H]1CSC(=O)[C@H](Cc2ccccc2)NC(=O)[C@H](Cc2ccccc2)NC(=O)CNC(=O)CNC1=O [compound 23, S. succinus AIP-I] (H-ATAGALPCGGFF; thioester 8-C), the IC50 [2] is reported as 117 ± 26 nM, the IC50 [3] is reported as 854 ± 65 nM and the IC50 [4] is reported as > 1000 nM. For the same molecule, the IC50 [5] was > 1000 nM.

Source: article PMC12345137 (mBio, 2025)
